{
  "source": "patent US12318452B2",
  "about": "“Degraders of WEE1 kinase” (DANA-FARBER CANCER INSTITUTE, INC., priority 2018, dated 2025)",
  "key": {"BT549 and HCC1806 cells": {"tested_on": "BT549 and HCC1806 cells", "assay": "Image-based cell cycle assay in TNBC cell lines", "details": "data not shown", "protocol": "(§1) HCC1806, BT549, and Kuramochi cells were maintained in RPMI (Corning®, Corning, NY) supplemented with 10% fetal bovine serum (FBS) (Life Technologies™, Carlsbad, CA) and 1% penicillin/streptomycin (Corning, Corning®, NY). OVCAR8 cells were maintained as above with the addition of 2 mM L-glutamine (Life Technologies™, Carlsbad, CA). MCF10A cells were maintained in a 1:1 mix of DMEM:F12 supplemented with 5% horse serum (Life Technologies™ Carlsbad, CA), 1% penicillin/streptomycin (Corning®, Corning, NY), 20 ng/ml EGF (Peprotech®, Rocky Hill, NJ), 500 ng/ml hydrocortisone (Sigma-Aldrich®, St. Louis, MO), 10 μg/ml insulin (Sigma-Aldrich®, St. Louis, MO), and 100 ng/ml cholera toxin (Sigma-Aldrich®, St. Louis, MO). COV362 cells were maintained in DMEM (Corning®, Corning, NY) supplemented with 10% FBS (Life Technologies™, Carlsbad, CA), 1% penicillin/streptomycin (Corning®, Corning, NY) and 2 mM L-glutamine (Life Technologies™, Carlsbad, CA). The OCE1 cells were maintained in FOMI (Wit-Fo) (PMID: 24303006) supplemented with 25 ng/ml cholera toxin (Sigma-Aldrich®, St. Louis, MO). […]\n(§2) Fixed cells were imaged with a 10× objective using an Operetta microscope and analyzed using the Columbus image data storage and analysis system (PerkinElmer®, Waltham, MA). […] The average LDR, EdU and phospho-histone H3 intensities within the nuclear masks were determined. […]"}, "MCF10A cells": {"tested_on": "MCF10A cells", "assay": "Image-based cell cycle assay in non-transformed mammary epithelial cells", "details": "data not shown", "protocol": "as §1, §2"}, "[1]": {"tested_on": "Ikaros (IKZF1), Aiolos (IKZF3)", "assay": "IKZF1 and IKZF3 degradation by immunoblot in MOLT4 cells", "format": "cell-based", "protocol": "(§3) Whole cell lysates for immunoblotting were prepared by pelleting cells from each cell line at 4° C. (300 g) for 5 minutes. The resulting cell pellets were washed 1× with ice-cold PBS and then resuspended in RIPA lysis buffer (Sigma, cat #R0278) supplemented with protease and phosphatase inhibitor tablets (Roche cat #4906845001). Lysates were clarified at 14,000 rpm for 15 minutes at 4° C. prior to quantification by BCA assay (Pierce™, cat #23225). Whole cell lysates were loaded into Bolt 4-12% Bis-Tris Gels (Thermo Fisher, cat #NW04120BOX) and separated by electrophoreses at 95 V for 1.5 hours. The gels were transferred to a nitrocellulose membrane using the iBlot® Gel Transfer at P3 for 7 minutes (Thermo Fisher, cat #IB23001) and then blocked for 1 hour at room temperature in Odyssey® blocking buffer (LICOR® Biosciences, cat #927-50010). Membranes were probed using antibodies against the relevant proteins at 4° C. overnight in 20% Odyssey® Blocking Buffer in 1×TBST. Membranes were then washed three times with 1×TBST (at least 5 minutes per wash) followed by incubation with the IRDye® goat anti-mouse (LICOR®, cat #926-32210) or goat anti-rabbit (LICOR®, cat #926-32211) secondary antibody (diluted 1:10,000) in 20% Odyssey® Blocking Buffer in 1×TBST for 1 hour at room temperature. […]"}, "Wee1": {"target": "Wee1 (Homo sapiens, UniProt P30291)", "sequence (P30291 whole entry)": "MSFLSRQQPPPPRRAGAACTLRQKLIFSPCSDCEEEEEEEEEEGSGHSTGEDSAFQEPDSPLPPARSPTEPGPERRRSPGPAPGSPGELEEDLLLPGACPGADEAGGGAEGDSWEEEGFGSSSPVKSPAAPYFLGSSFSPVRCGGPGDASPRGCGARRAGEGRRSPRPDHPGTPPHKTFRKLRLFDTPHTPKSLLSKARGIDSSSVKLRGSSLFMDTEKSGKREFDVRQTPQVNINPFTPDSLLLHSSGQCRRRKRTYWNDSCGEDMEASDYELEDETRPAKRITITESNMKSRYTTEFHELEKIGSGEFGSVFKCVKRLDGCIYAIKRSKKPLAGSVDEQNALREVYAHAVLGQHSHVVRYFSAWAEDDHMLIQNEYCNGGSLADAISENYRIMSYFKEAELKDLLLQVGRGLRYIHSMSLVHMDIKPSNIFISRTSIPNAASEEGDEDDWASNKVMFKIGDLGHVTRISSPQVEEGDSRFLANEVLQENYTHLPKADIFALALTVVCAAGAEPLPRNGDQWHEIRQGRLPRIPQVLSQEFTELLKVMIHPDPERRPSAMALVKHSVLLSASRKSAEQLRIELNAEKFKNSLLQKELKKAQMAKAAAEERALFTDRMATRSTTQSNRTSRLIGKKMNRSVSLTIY", "assay": "Wee1 degradation immunoblot in OVCAR8 cells", "format": "cell-based", "parameters": "endogenous in cells", "details": "5 hours", "protocol": "as §3, with “1×TBST.” for “1×TBST. Membranes were then washed three times with 1×TBST (at least 5 minutes per wash) followed by incubation with the IRDye® goat anti-mouse (LICOR®, cat #926-32210) or goat anti-rabbit (LICOR®, cat #926-32211) secondary antibody (diluted 1:10,000) in 20% Odyssey® Blocking Buffer in 1×TBST for 1 hour at room temperature.”\nCompound 13 was profiled in three different ovarian cancer cell lines OVCAR8, COV362, and Kuramochi (FIG. 6C-FIG. 6E). […] After confirming that Compound 13 degraded Wee1 in OVCAR8 cells, with maximal degradation observed at a 100 nM treatment (FIG. 11A), the efficacy of compound 13 and Olaparib combination treatments were evaluated."}},
  "data": [
    {"smiles": "C=CCn1c(=O)c2cnc(Nc3ccc(N4CCN(CCCNc5cccc6c5C(=O)N(C5CCC(=O)NC5=O)C6=O)CC4)cc3)nc2n1-c1cccc(C(C)(C)O)n1", "note": "(centres unmarked) [Compound 13, 4-((3-(4-(4-((2-allyl-1-(6-(2-hydroxypropan-2-yl)pyridin-2-yl)-3-oxo-2,3-dihydro-1H-pyrazolo[3,4-d]pyrimidin-6-yl)amino)phenyl)piperazin-1-yl)propyl)amino)-2-(2,6-dioxopiperidin-3-yl)isoindoline-1,3-dione]", "values": [
      {"measurement": "Changes in mitotic cell number", "setting": "BT549 and HCC1806 cells", "value": "greater changes in mitotic cell number than AZD1775"},
      {"measurement": "Effect on mitotic cell number", "setting": "MCF10A cells", "value": "very little effect"},
      {"measurement": "IKZF1 / IKZF3 degradation after 24 hrs", "setting": "[1]; 24 hrs of drug exposure", "value": "degradation of both IKZF1 and IKZF3 was apparent"},
      {"measurement": "IKZF1 / IKZF3 degradation at short time points", "setting": "[1]; short time points (5-hour)", "value": "no degradation of either IKZF1 or IKZF3"},
      {"measurement": "Concentration giving maximal Wee1 degradation", "setting": "Wee1", "value": 100, "unit": "nM"}
    ]}
  ]
}
